Like-named read-outs stand apart in the source and are kept apart here.
Tests used:
[1] = tested on: HIV-1RF; assay: XTT cytoprotection assay (antiviral activity); type: cell-based; details: for antiviral activity: result in words
Text: (§1) One exemplary means to determine antiviral activity is with CEM-SS cells and virus (e.g., HIV-1RF) (MOI = 0.01) using the XTT (2,3-bis[2-methoxy- 4-nitro-5-sulfophenyl] -5- [(phenylamino)carbonyl]-2H-tetrazolium hydroxide) cytoprotection assay, as described by Rice (1993) PNAS 90:9721-9724, and Rice (1997) Antimicrob. Agents Chemother. 41:419-426. Briefly, cells are infected with HIV-1RF (or other virus to be tested) in the presence of various dilutions of test compounds (thiolesters and controls). The cultures are incubated for seven days. During this time control cultures without protective compounds (i.e., compounds with anti-viral activity) replicate virus, induce syncytia, and result in about 90% cell death. The cell death is measured by XTT dye reduction. XTT is a soluble tetrazolimn dye that measures mitochondrial energy output, similar to MTT. Positive controls using dextran sulfate (an attachment inhibitor) or 3'-Azido -2'-3'-dideoxythymidine, AZT (a reverse transcriptase inhibitor) are added to each assay. Individual assays are done in duplicate using a sister plate method.
(§2) Effective antiviral concentrations providing 50% cytoprotection (EC50), and cellular growth inhibitory concentrations causing 50% cytotoxicity (IC50) are calculated.

[2] = tested on: CEM-SS cells; assay: cells; type: cell-based; details: for IC50: Homo sapiens, CEM-SS; for toxicity at the high test dose: high test dose of 316 µM
Text: as §1, §2

[3] = target: T1, recombinant HIV-1 NCp7 protein (Human immunodeficiency virus type 1 group M subtype B, UniProt P03347); assay: Trp37 zinc finger fluorescence (zinc ejection) assay; type: biochemical; details: for Zinc Finger Reactivity RFU/30 min: Table 2; for zinc finger reactivity: result in words
T1 construct: within the nucleocapsid p7 (NCp7) protein portion of the polyprotein
Procedure: Zinc finger reactivity was measured using a Zn specific fluorochrome, TSQ, N-(6-methoxy-8-quinolyl) -p-toluenesulfonamide, assay or a Trp37 zinc finger fluorescence assay. Fluorescent measurements of the Trp37 residue in the C-terminal finger of recombinant HIV-1 NCp7 protein were performed as described by Rice (1995) Science 270:1194-1197; Rice (1997) Antimicrob. Agents Chemother. 41:419-426. Measurement of Zn ejection from both fingers was measured using the Zn-selective fluorchrome probe TSQ (Molecular Probes, Eugene OR) as described by Rice (1996) J. Med. Chem 39:3606-3616. Measurement of the ability of NCp7 to bind to a DNA oligomer, a 44 mer: […] (SEQ ID NO:1), analogous to the HIV-1 RNA packaging site was carried out as described by Huang (1998) J. Med. Chem. 41:1371-1381, see also, Rossio (1998) HIV Pathogenesis and Treatment: Keystone Symposium on Molecular and Cellular Biology, Abstract # 4082. Briefly, 50 nM NCp7 was treated with test compounds for 1 hour at RT in […] buffer containing 10% glycerol and 50 mM Tris-HCl (pH 7.5). Labeled oligomer (0.1 picomole, end labeled [^32P]) was added in an equal volume of buffer containing 10% glycerol, 50 mM Tris-HCl (pH 7.5), 400 mM KCl and 40 mM MgCl2. The reaction was continued for 15 min at room temperature, and a total of […] (or 1/4 of the total reaction volume) was separated on nondenaturing 4.5% polyacrylamide gels in 0.5X Tris-Borate electrophoresis buffer. NCp7-oligomer complexes were visualized by autoradiography.
Changes in the intrinsic fluorescence of aromatic protein moieties are commonly used to monitor a reaction which involves a change in protein conformation. In the present invention, fluorescence can be used to monitor the loss of metal ion from a zinc finger, e.g., the loss of zinc from a CCHC retroviral zinc finger protein, after contact with a thiolester of the invention. The intrinsic fluorescence of Trp 37 in the second zinc finger of HIV-1 NC protein has been used to monitor nucleic acid binding and conformation of the zinc finger complex (see, Summers (1992) supra).
Zinc ejection is measured by the ability of compounds to chemically attack the cysteines in purified NCp7 protein resulting in a loss of fluorescence due to the movement of the tryptophan 37 residue from an exposed to an internal position on the protein. Zinc ejection is measured and expressed as either percent decrease in total fluorescence or decrease in relative fluorescence units per min during a 30 min assay (RFU/min). A thiolester is considered within the scope of the invention if any amount of zinc ejection is detected. For example, compound 50 has a zinc ejection rate of 0.86 RFU/min.

[4] = Human immunodeficiency virus 1, read-out: Antiviral Activity EC50
[5] = read-out: Antiviral Activity IC50
[6] = read-out: IC50 / cellular toxicity
[7] = average decrease in relative fluorescence
[8] = Table 3, average decrease in relative fluorescence
[9] = Human immunodeficiency virus 1, B104
[10] = Human immunodeficiency virus 1, read-out: EC50 (concentration inhibiting 50% virus replication)
[11] = Table 4, average decrease in relative fluorescence units over 30 min
[12] = read-out: Antiviral Activity IC50%
[13] = Table 5, average decrease in relative fluorescence units over 30 min

Structure (SMILES)	EC50 [1, 4]	IC50 [2, 5]	Zinc Finger Reactivity RFU/ min [3, 8]	other results
NS(=O)(=O)c1ccc(Cn2sc3ccccc3c2=O)cc1 [23 BITA]	13.8 µM	53.7 µM	–	IC50 [2, 6]: 53.7 µM; Zinc Finger Reactivity RFU/30 min [3, 7]: 2.7 RFU/30 min
NS(=O)(=O)c1ccc(CCn2sc3ccccc3c2=O)cc1 [24 BITA]	2 µM	45.5 µM	–	Zinc Finger Reactivity RFU/30 min [3, 7]: 2.7 RFU/30 min
CC(=O)Nc1ccc(S(=O)(=O)Nc2ccc(S(=O)(=O)c3ccc(-n4sc5ccccc5c4=O)cc3)cc2)cc1 [28 BITA]	9.6 µM	188 µM	7.9 RFU/ min	–
O=c1c2ccccc2sn1-c1ccc(S(=O)(=O)c2ccc([N+](=O)[O-])cc2)cc1 [31 BITA]	> 316 µM	> 316 µM	4.1 RFU/ min	antiviral activity [1]: without antiviral activity
O=c1c2ccccc2sn1-c1ccc(S(=O)(=O)c2ccc(NS(=O)(=O)Cc3ccccc3[N+](=O)[O-])cc2)cc1 [34 BITA]	3.2 µM	59.5 µM	2 RFU/ min	antiviral activity [1]: significant antiviral activity
NS(=O)(=O)c1ccc(CNC(=O)c2ccccc2SSc2ccccc2C(=O)NCc2ccc(S(N)(=O)=O)cc2)cc1 [Compound 23D, N,N'-(2,2'-dithiodibenzoyl)-bis-4-(aminomethyl)benzene-sulfonamide]	0.33 µM	19.4 µM	–	IC50 [2, 6]: 19.4 µM; zinc finger reactivity / zinc ejection rate [3]: 3.3 RFU/min; Zinc Finger Reactivity RFU/30 min [3, 7]: 3.3 RFU/30 min
NS(=O)(=O)c1ccc(CCNC(=O)c2ccccc2SSc2ccccc2C(=O)NCCc2ccc(S(N)(=O)=O)cc2)cc1 [Compound 24D, N,N-(2,2'-dithiodibenzoyl)-bis-4-(2-aminoethyl)benzene-sulfonamide]	0.41 µM	52.8 µM	–	Zinc Finger Reactivity RFU/30 min [3, 7]: 2.7 RFU/30 min
NS(=O)(=O)c1ccc(NC(=O)CNC(=O)c2ccccc2SSc2ccccc2C(=O)NCC(=O)Nc2ccc(S(N)(=O)=O)cc2)cc1 [Compound 25D, N,N'-(2,2'-dithiodibenzoyl)-bis-4-(glycinamido)benzene-sulfonamide]	1.6 µM	17.6 µM	–	zinc finger reactivity / zinc ejection rate [3]: 7.9 RFU/min; Zinc Finger Reactivity RFU/30 min [3, 7]: 7.9 RFU/30 min
Nc1ccc(S(=O)(=O)c2ccc(NC(=O)c3ccccc3SSc3ccccc3C(=O)Nc3ccc(S(=O)(=O)c4ccc(N)cc4)cc3)cc2)cc1 [Compound 26D]	4.3 µM	< 316 µM	3.3 RFU/ min	EC50 [1, 9]: 4.3 µM; EC50 [1, 10]: 4.3 µM; toxicity at the high test dose [2]: no toxicity; zinc finger reactivity / zinc ejection rate [3]: 3.3 RFU/min
CC(=O)Nc1ccc(S(=O)(=O)c2ccc(NC(=O)c3ccccc3SSc3ccccc3C(=O)Nc3ccc(S(=O)(=O)c4ccc(NC(C)=O)cc4)cc3)cc2)cc1 [Compound 27D]	1.5 µM	160 µM	5.9 RFU/ min	EC50 [1, 9]: 1.5 µM; EC50 [1, 10]: 1.5 µM; IC50 [2, 6]: 160 µM; zinc finger reactivity / zinc ejection rate [3]: 5.9 RFU/min
CC(=O)Nc1ccc(S(=O)(=O)Nc2ccc(S(=O)(=O)c3ccc(NC(=O)c4ccccc4SSc4ccccc4C(=O)Nc4ccc(S(=O)(=O)c5ccc(NS(=O)(=O)c6ccc(NC(C)=O)cc6)cc5)cc4)cc3)cc2)cc1 [Compound 28D]	1 µM	12.7 µM	5.9 RFU/ min	–
COc1ccc(C(=O)Nc2ccc(S(=O)(=O)c3ccc(NC(=O)c4ccccc4SSc4ccccc4C(=O)Nc4ccc(S(=O)(=O)c5ccc(NC(=O)c6ccc(OC)cc6)cc5)cc4)cc3)cc2)cc1 [Compound 29D]	3.8 µM	79.6 µM	6.9 RFU/ min	–
O=C(Nc1ccc(S(=O)(=O)c2ccc(NC(=O)c3ccccc3SSc3ccccc3C(=O)Nc3ccc(S(=O)(=O)c4ccc(NC(=O)c5cccs5)cc4)cc3)cc2)cc1)c1cccs1 [Compound 30D]	12.2 µM	190 µM	–	–
O=C(Nc1ccc(S(=O)(=O)c2ccc([N+](=O)[O-])cc2)cc1)c1ccccc1SSc1ccccc1C(=O)Nc1ccc(S(=O)(=O)c2ccc([N+](=O)[O-])cc2)cc1 [Compound 31D]	12.2 µM	> 316 µM	2.9 RFU/ min	EC50 [1, 10]: 12.2 µM; toxicity at the high test dose [2]: no toxicity
O=C(Nc1ccc(S(=O)(=O)c2ccc(NC(=O)c3ccccc3SSc3ccccc3C(=O)Nc3ccc(S(=O)(=O)c4ccc(NC(=O)c5ccc([N+](=O)[O-])cc5)cc4)cc3)cc2)cc1)c1ccc([N+](=O)[O-])cc1 [Compound 32D]	78 µM	> 316 µM	2.9 RFU/ min	–
O=C(Nc1ccc(S(=O)(=O)c2ccc(NC(=O)c3ccccc3SSc3ccccc3C(=O)Nc3ccc(S(=O)(=O)c4ccc(NC(=O)c5cc([N+](=O)[O-])cc([N+](=O)[O-])c5)cc4)cc3)cc2)cc1)c1cc([N+](=O)[O-])cc([N+](=O)[O-])c1 [Compound 33D]	240 µM	> 316 µM	1.6 RFU/ min	–
O=C(Nc1ccc(S(=O)(=O)c2ccc(NS(=O)(=O)Cc3ccccc3[N+](=O)[O-])cc2)cc1)c1ccccc1SSc1ccccc1C(=O)Nc1ccc(S(=O)(=O)c2ccc(NS(=O)(=O)Cc3ccccc3[N+](=O)[O-])cc2)cc1 [Compound 34D]	–	> 316 µM	1.5 RFU/ min	EC50 [1, 10]: 12.3 µM; antiviral activity [1]: significant antiviral activity; toxicity at the high test dose [2]: no toxicity
Nc1cccc(S(=O)(=O)c2cccc(NC(=O)c3ccccc3SSc3ccccc3C(=O)Nc3cccc(S(=O)(=O)c4cccc(N)c4)c3)c2)c1 [Compound 35]	1 µM	81.5 µM	–	EC50 [1, 9]: 1 µM; zinc finger reactivity / zinc ejection rate [3]: 0.92 RFU/min; Zinc Finger Reactivity RFU/ min [3, 11]: 0.92 RFU/min
CC(=O)Nc1cccc(S(=O)(=O)c2cccc(NC(=O)c3ccccc3SSc3ccccc3C(=O)Nc3cccc(S(=O)(=O)c4cccc(NC(C)=O)c4)c3)c2)c1 [Compound 36]	0.62 µM	5.9 µM	–	EC50 [1, 9]: 0.62 µM; zinc finger reactivity / zinc ejection rate [3]: 2 RFU/min; Zinc Finger Reactivity RFU/ min [3, 11]: 2 RFU/min
CC(=O)NS(=O)(=O)c1ccc(NC(=O)c2ccccc2NC(=O)CCCl)cc1 [Compound 37, N-[2-(3-chloro-propionamido)benzoyl]sulfacetamide]	–	–	–	antiviral activity [1]: neither had appreciable antiviral activity; IC50 [2, 12]: > 316 µM; Zinc Finger Reactivity RFU/ min [3, 13]: RFU/ min^b 2.0; zinc finger reactivity [3]: modest zinc finger reactivity
CC(=O)NS(=O)(=O)c1ccc(NC(=O)c2cccc(NC(=O)CCCl)c2)cc1 [Compound 38]	38 µM	–	–	antiviral activity [1]: neither had appreciable antiviral activity; IC50 [2, 12]: 103 µM; Zinc Finger Reactivity RFU/ min [3, 13]: 3.9 RFU/ min; zinc finger reactivity [3]: modest zinc finger reactivity
CC(=O)NS(=O)(=O)c1ccc(NC(=O)c2ccccc2NC(=O)CCl)cc1 [Compound 39]	> 316 µM	–	–	antiviral activity [1]: completely inactive; IC50 [2, 12]: 202 µM; Zinc Finger Reactivity RFU/ min [3, 13]: 0.3 RFU/ min

Source: patent EP1087941B9, “THIOLESTERS AND USES THEREOF” (THE UNITED STATES OF AMERICA, as represented by THE …, priority 1998, dated 1999)
